Assay results as given in US12214092B2, “Systems and methods for treating biological fluids” (Cerus Corporation, priority 2017, dated 2025).

Key:
[1] = Photochemical conversion of S-59 (150 μM) and photoproduct profile in plasma, PAS or PAS+plasma units, HPLC; format: physicochemical
[2] = Residual post-illumination amotosalen by LED wavelength in bacteria-spiked plasma, HPLC; conditions: for Pre-UV S-59: pre-illumination
[3] = 65/35 PAS+Plasma, 340 nm LED ~3.6 J/cm^2
[4] = 65/35 PAS+Plasma, 365 nm LED ~3.6 J/cm^2

Cc1oc2c(C)c3oc(=O)cc(C)c3cc2c1COCCN [S-59, 3-(2-aminoethoxymethyl)-2,5,9-trimethylfuro[3,2-g]chromen-7-one]
% of input S-59 remaining [1, 3]: 9.1%
Post-illumination HPLC area counts [1, 3]: 1249
% of input S-59 remaining [1, 4]: 46.2%
Post-illumination HPLC area counts [1, 4]: 5889
% of input S-59 remaining ([1]; PAS, 340 nm LED ~3 J/cm^2): 13.4%
Post-illumination HPLC area counts ([1]; PAS, 340 nm LED ~3 J/cm^2): 1436
% of input S-59 remaining ([1]; PAS, 365 nm LED ~3 J/cm^2): 36.8%
Post-illumination HPLC area counts ([1]; PAS, 365 nm LED ~3 J/cm^2): 4118
% of input S-59 remaining ([1]; PAS, INT100 ~6.4 J/cm^2): 26.2%
Post-illumination HPLC area counts ([1]; PAS, INT100 ~6.4 J/cm^2): 2905
% of input S-59 remaining ([1]; Plasma, 340 nm LED ~6.4 J/cm^2): 33.1%
Post-illumination HPLC area counts ([1]; Plasma, 340 nm LED ~6.4 J/cm^2): 4957
% of input S-59 remaining ([1]; Plasma, 365 nm LED ~6.4 J/cm^2): 66.8%
Post-illumination HPLC area counts ([1]; Plasma, 365 nm LED ~6.4 J/cm^2): 9675
% of input S-59 remaining ([1]; Plasma, INT100 ~6.4 J/cm^2): 60.5%
Post-illumination HPLC area counts ([1]; Plasma, INT100 ~6.4 J/cm^2): 8513
Pre-UV S-59 ([2]; E. coli plasma, 15 μM arm, 265 nm arm): 16.0 µM
Post-UV S-59 ([2]; E. coli plasma, 15 μM arm, 265 nm, ~3 J/cm^2): 12.7 µM
Pre-UV S-59 ([2]; E. coli plasma, 15 μM arm, 280 nm arm): 16.2 µM
Post-UV S-59 ([2]; E. coli plasma, 15 μM arm, 280 nm, ~3 J/cm^2): 12.6 µM
Pre-UV S-59 ([2]; E. coli plasma, 15 μM arm, 310 nm arm): 15.4 µM
Post-UV S-59 ([2]; E. coli plasma, 15 μM arm, 310 nm, ~3 J/cm^2): 5.5 µM
Pre-UV S-59 ([2]; E. coli plasma, 15 μM arm, 325 nm arm): 15.8 µM
Post-UV S-59 ([2]; E. coli plasma, 15 μM arm, 325 nm, ~3 J/cm^2): 4.0 µM
Pre-UV S-59 ([2]; E. coli plasma, 15 μM arm, 340 nm arm): 16.0 µM
Post-UV S-59 ([2]; E. coli plasma, 15 μM arm, 340 nm, ~3 J/cm^2): 3.7 µM
Pre-UV S-59 ([2]; E. coli plasma, 15 μM arm, 365 nm arm): 16.2 µM
Post-UV S-59 ([2]; E. coli plasma, 15 μM arm, 365 nm, ~3 J/cm^2): 8.1 µM
Pre-UV S-59 ([2]; E. coli plasma, 15 μM arm, 385 nm arm): 15.3 µM
Post-UV S-59 ([2]; E. coli plasma, 15 μM arm, 385 nm, ~3 J/cm^2): 14.3 µM
Pre-UV S-59 ([2]; E. coli plasma, 150 μM arm, 265 nm arm): 148.9 µM
Post-UV S-59 ([2]; E. coli plasma, 150 μM arm, 265 nm, ~3 J/cm^2): 115.0 µM
Pre-UV S-59 ([2]; E. coli plasma, 150 μM arm, 280 nm arm): 152.7 µM
Post-UV S-59 ([2]; E. coli plasma, 150 μM arm, 280 nm, ~3 J/cm^2): 148.1 µM
Pre-UV S-59 ([2]; E. coli plasma, 150 μM arm, 310 nm arm): 151.1 µM
Post-UV S-59 ([2]; E. coli plasma, 150 μM arm, 310 nm, ~3 J/cm^2): 56.8 µM
Pre-UV S-59 ([2]; E. coli plasma, 150 μM arm, 325 nm arm): 141.6 µM
Post-UV S-59 ([2]; E. coli plasma, 150 μM arm, 325 nm, ~3 J/cm^2): 52.1 µM
Pre-UV S-59 ([2]; E. coli plasma, 150 μM arm, 340 nm arm): 142.2 µM
Post-UV S-59 ([2]; E. coli plasma, 150 μM arm, 340 nm, ~3 J/cm^2): 48.1 µM
Pre-UV S-59 ([2]; E. coli plasma, 150 μM arm, 365 nm arm): 153.2 µM
Post-UV S-59 ([2]; E. coli plasma, 150 μM arm, 365 nm, ~3 J/cm^2): 79.8 µM
Pre-UV S-59 ([2]; E. coli plasma, 150 μM arm, 385 nm arm): 148.4 µM
Post-UV S-59 ([2]; E. coli plasma, 150 μM arm, 385 nm, ~3 J/cm^2): 135.1 µM
Pre-UV S-59 ([2]; P. acnes plasma, 15 μM arm, 265 nm arm): 15.7 µM
Post-UV S-59 ([2]; P. acnes plasma, 15 μM arm, 265 nm, ~6.4 J/cm^2): 10.8 µM
Pre-UV S-59 ([2]; P. acnes plasma, 15 μM arm, 280 nm arm): 15.7 µM
Post-UV S-59 ([2]; P. acnes plasma, 15 μM arm, 280 nm, ~6.4 J/cm^2): 16.0 µM
Pre-UV S-59 ([2]; P. acnes plasma, 15 μM arm, 310 nm arm): 15.7 µM
Post-UV S-59 ([2]; P. acnes plasma, 15 μM arm, 310 nm, ~6.4 J/cm^2): 2.2 µM
Pre-UV S-59 ([2]; P. acnes plasma, 15 μM arm, 325 nm arm): 15.7 µM
Post-UV S-59 ([2]; P. acnes plasma, 15 μM arm, 325 nm, ~6.4 J/cm^2): 1.1 µM
Pre-UV S-59 ([2]; P. acnes plasma, 15 μM arm, 340 nm arm): 15.7 µM
Post-UV S-59 ([2]; P. acnes plasma, 15 μM arm, 340 nm, ~6.4 J/cm^2): 1.4 µM
Pre-UV S-59 ([2]; P. acnes plasma, 15 μM arm, 365 nm arm): 15.7 µM
Post-UV S-59 ([2]; P. acnes plasma, 15 μM arm, 365 nm, ~6.4 J/cm^2): 5.5 µM
Pre-UV S-59 ([2]; P. acnes plasma, 15 μM arm, 385 nm arm): 15.7 µM
Post-UV S-59 ([2]; P. acnes plasma, 15 μM arm, 385 nm, ~6.4 J/cm^2): 13.7 µM
Pre-UV S-59 ([2]; S. epidermidis plasma, 15 μM arm, 265 nm arm): 14.4 µM
Post-UV S-59 ([2]; S. epidermidis plasma, 15 μM arm, 265 nm, ~3 J/cm^2): 13.0 µM
Pre-UV S-59 ([2]; S. epidermidis plasma, 15 μM arm, 280 nm arm): 14.8 µM
Post-UV S-59 ([2]; S. epidermidis plasma, 15 μM arm, 280 nm, ~3 J/cm^2): 11.8 µM
Pre-UV S-59 ([2]; S. epidermidis plasma, 15 μM arm, 310 nm arm): 14.3 µM
Post-UV S-59 ([2]; S. epidermidis plasma, 15 μM arm, 310 nm, ~3 J/cm^2): 5.2 µM
Pre-UV S-59 ([2]; S. epidermidis plasma, 15 μM arm, 325 nm arm): 14.9 µM
Post-UV S-59 ([2]; S. epidermidis plasma, 15 μM arm, 325 nm, ~3 J/cm^2): 3.7 µM
